Entries after “also recorded” stand apart in the source; their conditions may differ.
What was measured:
[1] = tested on: particulate guanylate cyclase; assay: Cyclic GMP / particulate guanylate cyclase activation in cultured smooth muscle cells and porcine aorta; assay type: cell-based
[2] = Infusion into human subjects with Class III NYHA congestive heart failure; assay type: in vivo, humans
Procedure: Human proANF's 1-30, 31-67, 79-98, and 99-126 (i.e., ANF) were infused into human subjects with Class III New York Heart Association congestive heart failure (CHF). An identical protocol to that used in example V where these peptides were infused into healthy human subjects was utilized. (See Attachment C and F for a detailed description of this protocol). The human subjects with congestive heart failure received an identical dose (0.1 μg/kg body wt/minute for 60 minutes) that the healthy human subjects received. […] This striking urine output secondary to proANF 31-67 was significant at P<0.0001 compared to the pre-infusion output of the congestive heart failure subjects (n=6).

[3] = Infusion into healthy human subjects; assay type: in vivo; settings: healthy humans
Procedure: Infusion of these peptides into healthy human subjects was performed as follows: Human pro-ANF 1-30, pro-ANF 31-67, and pro-ANF 79-98, and hANF (i.e., pro-ANF 99-126, were synthesized by Peninsula Laboratories (Belmont, Calif.). High pressure liquid chromatography (HPLC) analysis was performed on a sample of each of the four peptides to ensure purity. The peptides were dissolved in a sterile 0.9% saline solution to a concentration of 100 μg/ml and dispensed in 2 and 5 ml aliquots into sealed sterile vials. At the time of dispensing, randomly selected vials were tested for pyrogens and sterility. Prior to labeling the vials, the actual peptide content of the dispensed solution were determined by direct radioimmunoassay to account for any possible absorption of the respective peptides to the walls of the vials. All vials were then stored at −80° C. until thawed for individual study.
Normal healthy subjects were chosen on the basis of age (between 20 and 50 years), physical examination and biochemical screenings. The subjects consumed their normal diets prior to testing. The subjects fasted overnight and were tested in the morning in the seated position. Intravenous catheters were placed bilaterally for the administration of pro-hANF 1-30, pro-hANF 31-67, pro-hANF 79-98 and hANF (pro-hANF 99-126) and for blood sampling. After completion of a 45-minute equilibration period, there were three […] phases of the study: baseline, experimental infusion (60 minutes) and recovery (3 hours). The baseline phase consisted of two 30 minute urine collection periods, the experimental phase consisted of three 20 minute urine and plasma collection periods, and the recovery phase consisted of two 30 minute urine and plasma collection periods each hour for three hours post-infusion. Urine output was replaced on a milliliter per milliliter basis throughout the study by administering oral water or orange juice. Urine samples were obtained by voiding at the designated collection periods.
The 36 subjects were divided into 6 groups. One group (i.e., the control group) received a placebo infusion of 0.9% sodium chloride during the experimental infusion phase. […] The four remaining groups of six subjects each received human pro-hANF 1-30, pro-hANF 31-67, pro-hANF 79-98 and HANF. The four groups received the peptides by continuous infusion at the rate of 0.1 μg/kg per minute. The volume administered per hour during the experimental infusion phase was 10 ml for all four peptides and the placebo. All infusions were given by a constant-rate infusion pump, with the final concentrations of prohANFs adjusted for the subjects' body weight. The subjects heart rate and cuff blood pressure were taken at 5 minute intervals throughout the study. The excreted urine was analyzed for sodium concentration.

[4] = tested on: porcine aortas; assay: Vasodilation of porcine aortic strips preconstricted with 0.3 micromolar phenylephrine
Procedure: 30 Kg pigs are sacrificed, and aortic strips are harvested. The strips are attached to F-60 transducer (Narco-BioSystems, Houston, Tex.) and attached to a physiography (Narco-BioSystems) while being submerged in a muscle tissue bath comprising a Krebs Ringer solution at 37° C., with 95% O2-5% CO2, bubbled through the bath. Percentage vasodilation is measured versus time after preconstriction with 0.3 micromolar phenylephrine. […] (Vesely et al., Biochem. Biophys. Res. Commun. 148:1540-1548, 1987).

[5] = tested on: particulate guanylate cyclase; assay: Particulate guanylate cyclase activity in the kidney; assay type: biochemical; settings: 1 μM; whole kidney homogenates, renal cortical and medullary membranes, isolated distal nephrons
Procedure: Testing is also carried out to determine biologic effects of these peptides by measuring their effects on particulate guanylate activity in the kidney.

[6] = Ischemic nonoliguric acute renal failure (ARF) in rats; assay type: in vivo, Sprague-Dawley rats
Procedure: Ischemic nonologuric acute renal failure (ARF) was induced in 24 male Sprague-Dawley rats (Zivc-Miller), weighing 200-270 g with 50 min of ischemia. Seven of the ARF rats received proANF 31-67. There were 17 ARF rats in the control group. Each of these rats were handled identically with the control rats as well as the experimental group of rats receiving an osmotic pump placement two days after receiving a unilateral right nephrectomy followed by clamping left renal artery for 50 min. The only difference was that the control group received 0.9% saline only in their osmotic pumps, whereas the experimental group had proANF 31-67 dissolved in 0.9% saline within their osmotic pumps which pump for 72 hours into the peritoneal cavity. In the 17 control ARF rats their preischemic blood urea nitrogen (BUN) and creatinine levels of 16±1 and 0.56±0.05 mg/dl increased to 162±4 and 8.17±0.5 mg/dl, P<0.001, respect 4 of postischemia. ProANF 31-67 (0.3 μg·kg^−1·min^−1 intraperitoneally), decreased the BUN and creatinine levels to 53±17 mg/dl and 0.98±0.12 mg/dl (P<0.001) in seven animals where ARF had been established for two days. […] Acute tubular necrosis was <5% in the proANF 31-67-treated rats compared with 25% to >75% in the placebo-treated ARF animals.

Substance: H-EVVPPQVLSEPNEEAGAALSPLPEVPPWTGEVSPAQR-OH [proANF 31-67]
- cyclic GMP levels in cultured smooth muscle cells ([1]; cultured smooth muscle cells): increase cyclic GMP levels
- concentration of maximal activation of guanylate cyclase activity ([1]; porcine aorta and isolated smooth muscle cells): about 1 μM
- EC50 ([1]; porcine aorta and isolated smooth muscle cells, read-out: half maximal activation (ED5o) of guanylate cyclase): ~10 nM
- FENa 20 minutes after infusion began ([2]; CHF): doubled
- FENa at the end of the infusion vs baseline ([2]; CHF): 4.5 fold
- decrease of central venous pressure ([2]; CHF): 27%
- decrease of pulmonary capillary wedge pressure ([2]; CHF): 33%
- heart rate ([2]; CHF): did not change significantly
- increase of cardiac index ([2]; CHF): 35%
- increase of cardiac output ([2]; CHF): 34%
- increase of stroke volume index ([2]; CHF): 24%
- mean pulmonary artery pressure ([2]; CHF): did not change significantly
- sodium excretion within 20 minutes ([2]; CHF): doubling
- enhancement of sodium excretion ([2]; CHF subjects, 100 ng/kg body weight/min for 60 minutes): three-to-eight fold
- urine output in 20 minutes ([2]; CHF, 0.1 μg/kg body wt/minute for 60 minutes): doubled
- urine output at the end of the 60 minute infusion ([2]; CHF, 0.1 μg/kg body wt/minute, n=6): 4.8 fold
- fractional excretion of sodium (in words) ([2]; CHF, 100 ng/kg body weight per minute for 60 minutes): significantly (P<0.05) increased
- maximum increase of fractional excretion of sodium (FENa) ([2]; CHF, P<0.001): 6 fold
- sodium excretion 3 hours after infusion was stopped vs baseline ([2]; CHF, P<0.01): 3 fold
- decrease of pulmonary vascular resistance ([2]; CHF, during the infusion): 25%
- decrease of systemic vascular resistance ([2]; CHF, during the infusion): 24%
- urine output 3 hours after stopping the infusion vs pre-infusion values ([2]; CHF, n=6): 4.3 fold
- urine output 3 hours after stopping the infusion ([2]; CHF, n=6, baseline 1.56±0.35 mL/min): 6.7 ± 0.65 mL/min
- cardiac index after proANF 31-67 ([2]; CHF, from 2.66±0.01): 3.58±0.01 L·min^−1·m^−2
- cardiac output after proANF 31-67 ([2]; CHF, from 5.35±0.9 L/min): 7.9 ± 1.2 L/min
- effects in persons with CHF compared to healthy individuals ([2]; diuretic and natriuretic effects): not blunted (i.e., decreased) compared to healthy individuals
- adverse effects ([2]; human, in vivo): no adverse effects
- hypotension ([2]; human, in vivo): None became hypotensive
- increase in urinary volume and flow ([2]; one CHF patient, for six hours after infusion was stopped): 2 fold
- duration of sodium excreting effects compared to ANF [3]: significantly (P<0.001) prolonged compared to ANF; also recorded: last significantly (P<0.001) longer than ANF's effects
- increase in urine volume (in words) ([3]; 100 ng/kg body wt per minute for 1 hour i.v., n=6, ANOVA): significant
- sodium excretion (in words) ([3]; 100 ng/kg body wt per minute for 60 minutes, vs baseline): significantly (P<0.05) increased
- systolic and diastolic blood pressures ([3]; 100 ng/kg body wt per minute i.v. for 60 min, n=6): significant; also recorded: lowers blood pressure the most
- increase in cyclic GMP levels over baseline levels associated with vasodilation [4]: four-to-five fold
- particulate guanylate cyclase activity [5]: enhance
- creatinine level ([6]; 0.3 μg·kg^−1·min^−1 intraperitoneally, seven animals, ARF established two days, control ARF rats 8.17±0.5 at day 4): 0.98 ± 0.12 mg/dL
- blood urea nitrogen (BUN) level ([6]; 0.3 μg·kg^−1·min^−1 intraperitoneally, seven animals, ARF established two days, control ARF rats 162±4 at day 4): 53 ± 17 mg/dL
- acute tubular necrosis ([6]; 25% to >75% in placebo-treated animals): < 5%
- mortality at day 6 of ARF ([6]; 88% without proANF 31-67): 14%
- left ventricular dilation (transthoracic echocardiography) ([6]; ARF rats): reversed this dilation
- water excretion ([6]; doubled with ARF): further augmented
- survival (Kaplan-Meir plot) ([6]; from day 4 (P<0.01) and day 5 onward (P<0.001) vs placebo-treated ARF rats): significant advantage with respect to survival

— patent publication US20060205642A1, “Oral methods of treatment using proANF peptides” (priority 2005, published 2006)
